Literature values as cited in US5565430A, “Azaaspartic acid analogs as interleukin-1β converting enzyme inhibitors” (Sterling Winthrop Inc., priority 1994, dated 1996).

B1: Soluble IL-1 receptor: Soluble IL-1 receptor (protein, UniProt P14778 18-336, looked up)
extracellular domain: LEADKCKEREEKIILVSSANEIDVRPCPLNPNEHKGTITWYKDDSKTPVSTEQASRIHQHKEKLWFVPAKVEDSGHYYCVVRNSSYCLRIKISAKFVENEPNLCYNAQAIFKQKLPVAGDGGLVCPYMEFFKNENNELPKLQWYKDCKPLLLDNIHFSGVKDRLIVMNVAEKHRGNYTCHASYTYLGKQYPITRVIEFITLEENKPTRPVIVSPANETMEVDLGSQIQLICNVTGQLSDIAYWKWNGSVIDEDDPVLGEDYYSVENPANKRRSTLITVLNISEIESRFYKHPFTCFAKNTHGIDAAYIQLIYPVTNFQK
modifications: extracellular domain

Experiments:
[1] = system: patients with active rheumatoid arthritis; conditions: subcutaneous, after three weeks of daily treatment
[2] = system: PG-APS model of arthritis in rats
[3] = system: patients with rheumatoid arthritis; conditions: subcutaneous, open-label
[4] = system: rabbit immune complex colitis; conditions: animal model of colitis
[5] = system: chronic myelogenous leukemia cells; conditions: cells removed from leukemia patients
allergic subjects = conditions: randomized, double-blind, placebo-controlled

Molecule | antiinflammatory activity in rheumatoid arthritis patients [1] | joint swelling [2] | efficacy in rheumatoid arthritis trial [3] | tissue necrosis and inflammatory cells in colon [4] | colony growth of leukemia cells [5] | cutaneous late-phase allergic reaction (allergic subjects)
Antril: The IL-1 receptor antagonist, Antril (Synergen) | decrease in joint swelling and less disease activity | – | – | – | – | –
IL-1ra: IL-1 receptor antagonist, naturally occurring | – | supresses joint swelling | shows efficacy | reduced tissue necrosis and the number of inflammatory cells in the colon | inhibit colony growth | –
B1 | – | – | – | – | inhibit colony growth | significantly reduces clinically the cutaneous late-phase allergic reaction
